Structures can show the parent of a compound that is named as a salt.

The source of these data is patent US20070078263A1, “BIARYL SUBSTITUTED HETEROCYCLE INHIBITORS OF LTA4H FOR TREATING INFLAMMATION” (deCODE Chemistry, Inc., priority 2005, published 2007).

The target of one experiment is T1, human LTA4 hydrolase (Homo sapiens, UniProt P09960).
T1 construct: A human LTA4 hydrolase full-length cDNA clone (NM 000895) was purchased; His tag (6xHis of vector pDEST17); made in house; host or cells: Escherichia coli BL21-AI
T1 sequence (P09960 1-611): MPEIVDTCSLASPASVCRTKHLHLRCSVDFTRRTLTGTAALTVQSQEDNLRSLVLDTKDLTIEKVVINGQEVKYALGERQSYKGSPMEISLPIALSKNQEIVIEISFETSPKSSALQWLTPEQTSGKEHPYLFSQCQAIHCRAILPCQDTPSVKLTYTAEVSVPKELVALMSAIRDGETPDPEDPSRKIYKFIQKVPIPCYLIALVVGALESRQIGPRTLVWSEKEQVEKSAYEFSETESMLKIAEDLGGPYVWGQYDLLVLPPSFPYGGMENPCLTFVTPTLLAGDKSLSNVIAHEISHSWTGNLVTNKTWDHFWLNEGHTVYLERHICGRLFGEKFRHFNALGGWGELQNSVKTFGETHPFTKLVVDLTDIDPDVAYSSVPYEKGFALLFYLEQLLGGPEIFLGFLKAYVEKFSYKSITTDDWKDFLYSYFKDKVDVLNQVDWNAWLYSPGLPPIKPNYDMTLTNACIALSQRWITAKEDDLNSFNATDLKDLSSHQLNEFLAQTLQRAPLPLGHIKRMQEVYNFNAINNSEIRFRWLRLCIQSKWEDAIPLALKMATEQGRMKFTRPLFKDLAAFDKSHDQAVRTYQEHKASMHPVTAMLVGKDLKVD
Briefly: In vitro assay testing inhibitory activity against purified recombinant human LTA4 hydrolase (LTB4 formed, LC-MS/MS).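 Further: 200 nM enzyme preincubated 10 min at room temperature with serial inhibitor dilutions in pH 8.0 Tris buffer with BSA and 10% DMSO, then 2 µM LTA4 added.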 It counts as biochemical.
Details: not given
For the compound `c1ccc(Cc2ccc(COC[C@H]3CCCN3)cc2)cc1` [Example 156, hydrochloride salt], the IC50 is below 5 µM.

The experiment is the same for the next values; noted with them: recombinant human LTA4 hydrolase 200 nM, LTA4 2 μM; read-out: AvgIC50.
As to `N#Cc1ccc(Oc2ccc(OC[C@H]3CCCN3)cc2)cc1` [Example 15, 4-[4-((R)-1-Pyrrolidin-2-ylmethoxy)-phenoxy]-benzonitrile hydrochloride], the IC50 was below 5 µM.

`c1ccc(Oc2ccc(OCC3CNCCN3)cc2)cc1` (stereo not drawn) [Example 76, dihydrochloride]: the IC50 was below 5 µM.

Turning to `FC(F)(F)c1cccc(COc2ccc(OC[C@H]3CCCN3)cc2)c1` [Example 96, (R)-2-[4-(3-Trifluoromethyl-benzyloxy)-phenoxymethyl]-pyrrolidine Hydrogen chloride salt], the IC50 lay within 5 to 20 µM.

Turning to `O=C(O)CN1CCC[C@@H]1COc1ccc(Oc2ccc(C(F)(F)F)cc2)cc1` [Example 28, (R)-2-[4-(4-trifluoromethyl-phenoxy)-phenoxymethyl]-pyrrolidine-1-yl)acetic acid sodium salt], the IC50 was below 5 µM.

In the case of `c1csc(-c2ccc(Cc3ccc(OC[C@@H]4CCCN4)cc3)cc2)n1` [Example 150, 2-{4-[4-((S)-1-Pyrrolidin-2-ylmethoxy)-benzyl]-phenyl}-thiazole hydrochloride salt], the IC50 is below 5 µM.

As for `CC(=O)c1ccc(Oc2ccc(OC[C@H]3CCCN3)cc2)cc1` [Example 17, 1-{4-[4-((R)-1-Pyrrolidin-2-ylmethoxy)-phenoxy]-phenyl}-ethanone hydrochloride], the IC50 was below 5 µM.

With `Cc1noc(CCCN2CCC[C@@H]2COc2ccc(Cc3ccccc3)cc2)n1` [Example 31], the IC50 is below 5 µM.

As for `c1ccc(Cc2ccc(-c3ccc(OC[C@H]4CCCN4)cc3)s2)cc1` [Example 170, (R)-2-[4-(5-Benzyl-thiophen-2-yl)-phenoxymethyl]-pyrrolidine], the IC50 is below 5 µM.

As for `O=C(O)CCCN1CCC[C@@H]1COc1ccc(Cc2ccc(-c3ccc(Cl)s3)cc2)cc1` [Example 116, (R)-2-{4-[4-(5-chloro-thiophen-2-yl)-benzyl]-phenoxymethyl}-pyrrolidin-1-yl}-butyric hydrogen chloride salt], the IC50 is below 5 µM.

Take `COC(=O)CCN1CCCC[C@H]1COc1ccc(Oc2ccc(Cl)cc2)cc1` [Example 58, 3-{(S)-2-[4-(4-Chloro-phenoxy)-phenoxymethyl]-piperidin-1-yl}-propionic acid methyl ester]: the IC50 is below 5 µM.

In the case of `Cc1ccc(-c2ccc(Cc3ccc(OC[C@H]4CCCN4CCCC(=O)O)cc3)cc2)s1` [Example 115, (R)-2-{4-[4-(5-methyl-thiophen-2-yl)-benzyl]-phenoxymethyl}-pyrrolidin-1-yl}-butyric acid hydrogen chloride salt], the IC50 is below 5 µM.

As for `O=C(O)CCCN1CCC[C@@H]1COc1ccc(Cc2ccc(-c3ccco3)cc2)cc1` [Example 114, 4-{(R)-2-[4-(4-furan-2-yl-benzyl)-phenoxymethyl]-pyrrolidin-1-yl}-butyric acid hydrogen chloride salt], the IC50 was below 5 µM.

On to `FC(F)(F)c1ccc(COc2ccc(OC[C@H]3CCCN3)cc2)cc1` [Example 95, (R)-2-[4-(4-Trifluoromethyl-benzyloxy)-phenoxymethyl]-pyrrolidine Hydrogen chloride salt], for which the IC50 was below 5 µM.

`Clc1ccc(COc2ccc(OC[C@H]3CCCN3)cc2)cc1` [Example 94, (R)-2-[4-(4-Chloro-benzyloxy)-phenoxymethyl]-pyrrolidine Hydrogen chloride salt]: the IC50 is below 5 µM.

As to `c1coc(-c2ccc(Cc3ccc(OC[C@H]4CCCN4)cc3)cc2)n1` [Example 152, 2-{4-[4-((R)-1-Pyrrolidin-2-ylmethoxy)-benzyl]-phenyl}-oxazole], the IC50 is below 5 µM.

On to `O=C(O)CCN1CCC[C@H]1COc1ccc(Cc2ccccc2)cc1` [Example 34, 3-[(S)-2-(4-Benzyl-phenoxymethyl)-pyrrolidin-1-yl]-propionic acid HCl salt], for which the IC50 is 5 to 20 µM.

As to `c1cc(-c2ccc(Cc3ccc(OC[C@H]4CCCCN4)cc3)cc2)cs1` [Example 78, (R)-2-[4-(4-Thiophen-3-yl-benzyl)-phenoxymethyl]-piperidine hydrochloride], the IC50 is below 5 µM.

In the case of `Clc1ccc(Cc2ccc(OCC3CCCCN3)cc2)cc1` (stereo in doubt) [Example 165, (S)-2-[4-(4-Chlorobenzyl)-phenoxymethyl]-piperidine hydrochloride], the IC50 was below 5 µM.

As to `c1cc(-c2ccc(Cc3ccc(OC[C@H]4CCCN4)cc3)cc2)ccn1` [Example 125, 4-{4-[4-((R)-1-Pyrrolidin-2-ylmethoxy)-benzyl]-phenyl}-pyridine hydrogen chloride salt], the IC50 was 5 to 20 µM.

Turning to `c1ccc(Cc2ccc(OC[C@H]3CCCN3Cc3ccncc3)cc2)cc1` [Example 6, 4-[(R)-2-(4-benzyl-phenoxymethyl)-pyrrolidin-1-ylmethyl]-pyridine], the IC50 is below 5 µM.

In the case of `O=C(c1ccccc1)c1ccc(OC[C@H]2CCCN2)cc1` [Example 46, Phenyl-[4-((R)-1-pyrrolidin-2-ylmethoxy)-phenyl]-methanone], the IC50 was in the range of 5 to 20 µM.

Regarding `c1cc(OC[C@@H]2CCCN2)ccc1Cc1ccc(N2CCC2)cc1` [Example 124, (S)-2-[4-(4-Azetidin-1-yl-benzyl)-phenoxymethyl]-pyrrolidine hydrogen chloride salt], the IC50 was in the range of 5 to 20 µM.

In the case of `c1ncc(-c2ccc(Oc3ccc(OC[C@H]4CCCN4)cc3)cc2)o1` [Example 132, 5-{4-[4((R)-1-Pyrrolidin-2-ylmethoxy)-phenoxy]-phenyl}-oxazole, hydrogen chloride salt], the IC50 is 5 to 20 µM.

Consider `Clc1ccc(COc2ccc(OC[C@H]3CCCN3)cc2)c(Cl)c1` [Example 91, (R)-2-[4-(2,4-Dichloro-benzyloxy)-phenoxymethyl]-pyrrolidine hydrogen chloride salt], for which the IC50 lay in the range of 5 to 20 µM.

As to `c1ccc(-c2ccc(Oc3ccc(OC[C@H]4CCCN4)cc3)cc2)cc1` [Example 12, (R)-2-[4-(Biphenyl-4-yloxy)-phenoxymethyl]-pyrrolidine hydrochloride], the IC50 was below 5 µM.

With `c1ccc(Nc2ccc(OC[C@H]3CCCN3)cc2)cc1` [Example 44, Phenyl-[4-((R)-1-pyrrolidin-2-ylmethoxy)-phenyl]-amine], the IC50 was below 5 µM.

For the compound `c1ccc(Cc2ccc(-c3ccc(OC[C@@H]4CCCN4)cc3)s2)cc1` [Example 172, (S)-2-[4-(5-Benzyl-thiophen-2-yl)-phenoxymethyl]-pyrrolidine], the IC50 is below 5 µM.

Turning to `FC(F)(F)c1ccc(Oc2ccc(OC[C@@H]3CCCN3)cc2)cc1` [Example 24, (S)-2-[4-(4-trifluoromethyl-phenoxy)-phenoxymethyl]-pyrrolidine], the IC50 is below 5 µM.

For `OCCCCN1CCC[C@H]1COc1ccc(Cc2ccccc2)cc1` [Example 33, 4-[(S)-2-(4-Benzyl-phenoxymethyl)-pyrrolidin-1-yl]-butan-1-ol], the IC50 is below 5 µM.

On to `c1ccc2[nH]c(Oc3ccc(OC[C@H]4CCCN4)cc3)nc2c1` [Example 103, 2-[4-((R)-1-Pyrrolidin-2-ylmethoxy)-phenoxy]-1H-benzoimidazole Hydrogen chloride salt], for which the IC50 is below 5 µM.

For the compound `O=C(O)CCCN1CCC[C@@H]1COc1ccc(Cc2ccc(-c3ccccc3)s2)cc1` [Example 160, 4-{(R)-2-[4-(5-Phenyl-thiophen-2-ylmethyl)-phenoxymethyl]-pyrrolidin-1-yl}-butyric acid], the IC50 is below 5 µM.

Regarding `c1ccc(Oc2ccc(OC[C@H]3CCCN3)cc2)cc1` [Example 45, (R)-2-(4-Phenoxy-phenoxymethyl)-pyrrolidine], the IC50 is below 5 µM.

`c1ncn(-c2ccc(Oc3ccc(OC[C@H]4CCCN4)cc3)cc2)n1` [Example 153, 1-{4-[4-((R)-1-Pyrrolidin-2-ylmethoxy)-phenoxy]-phenyl}-1H-[1,2,4]triazole hydrochloride salt]: the IC50 was below 5 µM.

With `c1cc(Oc2ccc(OC[C@H]3CCCN3)cc2)ccn1` [Example 144, 4-[4-((R)-1-Pyrrolidin-2-ylmethoxy)-phenoxy]-pyridine], the IC50 was below 5 µM.

Turning to `Fc1ccc(COc2ccc(OC[C@H]3CCCN3)cc2)cc1` [Example 92, (R)-2-[4-(4-Fluoro-benzyloxy)-phenoxymethyl]-pyrrolidine Hydrogen chloride salt], the IC50 is below 5 µM.

For the compound `c1coc(-c2ccc(Oc3ccc(OC[C@H]4CCCN4)cc3)cc2)n1` [Example 148, hydrochloride salt], the IC50 was below 5 µM.

On to `O=C(O)CCCN1CCC[C@H]1COc1ccc(Cc2ccc(-c3nccs3)cc2)cc1` [Example 151, 4-{(S)-2-[4-(4-Thiazol-2-yl-benzyl)-phenoxymethyl]-pyrrolidin-1-yl}-butylic acid hydrochloride salt], for which the IC50 is below 5 µM.

On to `N#CC1(c2ccc(Oc3ccc(OC[C@H]4CCCN4)cc3)cc2)CC1` [Example 136, 1-{4-[4-((R)-1-Pyrrolidin-2-ylmethoxy)-phenoxy]-phenyl}-cyclopropanecarbonitrile hydrogen chloride salt], for which the IC50 was below 5 µM.
